# In US20180311342A1, “IMMUNOSTIMULATING AGENT” (AJINOMOTO CO., INC., priority 2017, published 2018):
# Test system: anti-OVA-specific IgG2a subclass antibody
# Assay: Adjuvant activity test: anti-OVA-specific IgG2a subclass antibody in serum of OVA-immunized mice (ELISA)
# Type: in vivo, BALB/c mice
# Conditions: after secondary immunization, serum 2 weeks later; OVA 5 μg + compound 0.256 μmol in 5% αCD-added saline (Addavax mixed with saline at 1:1), dorsal-subcutaneous; compared to OVA single administration group
# Protocol: 8-Week-old female BALB/c mice were divided into groups (N=6), and each group was primarily immunized by dorsal-subcutaneous administration of (1) ovalbumin (OVA) (5 μg) dissolved in saline as an antigen (OVA single administration group), (2) OVA 5 μg and Addavax™ (mixed with saline at 1:1) dissolved in saline (Addavax™ administration group) as positive control adjuvant, (3) OVA 5 μg and SZ137 0.256 μmol dissolved or dispersed in 5% α-cyclodextrin (hereinafter to be simply referred to as αCD)-added saline (SZ137 administration group), (4) OVA (5 μg) and SZ138 (0.256 μmol) dissolved or dispersed in 5% αCD-added saline (SZ138 administration group), (5) OVA (5 μg) and SZ142 (0.256 μmol) dissolved or dispersed in 5% αCD-added saline (SZ142 administration group), (6) OVA (5 μg) and SZ144 (0.256 μmol) dissolved or dispersed in 5% αCD-added saline (SZ144 administration group), (7) OVA (5 μg) and SZ145 (0.256 μmol) dissolved or dispersed in 5% αCD-added saline (SZ145 administration group), (8) OVA (5 μg) and SZ146 (0.256 μmol) dissolved or dispersed in 5% αCD-added saline (SZ146 administration group), (9) OVA (5 μg) and SZ147 (0.256 μmol) dissolved or dispersed in 5% αCD-added saline (SZ147 administration group), (10) OVA (5 μg) and SZ148 (0.256 μmol) dissolved or dispersed in 5% αCD-added saline (SZ148 administration group), each per mouse. Two week later, the secondary immunization was carried out by dorsal-subcutaneous administration of solutions or dispersions similar to those of the above-mentioned (1)-(10) again. Two weeks from the secondary immunization, the whole blood was extracted under anesthesia, and the obtained serum sample was measured for anti-OVA-specific IgG1 subclass antibody, anti-OVA-specific IgG2a subclass antibody, and anti-OVA-specific IgE antibody.
# The measurement method of the anti-OVA-specific IgG1 subclass antibody and anti-OVA-specific IgG2a subclass antibody in Experimental Example 1 and the following Experimental Examples 2-10 is as follows.
# To a 96 well plate was added 5 μg/ml OVA at 100 µl/well, and the mixture was incubated at 4° C. overnight. After incubation, the mixture was washed three times with 200 μl of PBS-T (PBS (phosphate buffered saline)+0.05% (v/v) Tween 20) per well, and blocked with 100 μl of 5% FCS (fetal calf serum)/PBS solution per well at room temperature for 1-2 hr. Thereafter, the mixture was washed three times with PBS-T (200 μl/well), a diluted serum sample (100 l/well) or the same amount of 5% FCS/PBS solution as a control was added, and the mixture was incubated at 37° C. for 1 hr. To calculate concentration of the antibody, the standard of an anti-OVA-specific IgG1 subclass antibody diluted with 2% FCS/PBS solution was added at 100 ng/ml, 50 ng/ml, 25 ng/ml, 12.5 ng/ml, 6.25 ng/ml, 3.125 ng/ml, 1.56 ng/ml, 0.781 ng/ml, 0.391 ng/ml, 0.195 ng/ml, 0.098 ng/ml, 0 ng/ml, per 1 well. When an anti-OVA-specific IgG2a subclass antibody was measured, the standard of an anti-OVA-specific IgG2a subclass antibody was added at 50 ng/ml, 25 ng/ml, 12.5 ng/ml, 6.25 ng/ml, 3.125 ng/ml, 1.56 ng/ml, 0.781 ng/ml, 0.391 ng/ml, 0.195 ng/ml, 0.098 ng/ml, 0.049 ng/ml, 0 ng/ml, per 1 well. Thereafter, similar to the samples, the mixture was washed five times with PBS-T (200 μl/well), a diluted biotinylated anti-mouse IgG1 antibody and IgG2a antibody were added (100 μl/well), and the mixture was incubated at 37° C. for 45 min. Thereafter, the mixture was washed five times with PBS-T (200 μl/well), a diluted anti-biotin-HRP antibody was added (100 μl/well), and the mixture was incubated at 37° C. for another 30 min. Thereafter, the mixture was washed five times with PBS-T (200 μl/well), TMB substrate solution was added (100 μl/well), and the mixture was incubated at room temperature for 10-15 min. Thereafter, a reaction quenching liquid (2N sulfuric acid solution) was added (50 l/well) to discontinue a color developing reaction, and the absorbance (OD Value=450 nm) was measured by a microplate reader. […]
row,SMILES,anti-OVA-specific IgG2a subclass antibody production
1,"CCCCCCCCCCCCNC(=O)N[C@@H](CCCNC(=N)N)C(=O)NCCCCCCCCCCCC.Cl [SZ212, (2S)—N-dodecyl-2-(dodecylcarbamoylamino)-5-guanidino-pentanamide hydrochloride]",significant enhancement
2,"CCCCCCCCCCCCCCCCNC(=O)N[C@@H](CCCCN)C(=O)NCCCCCCCC.Cl [SZ213, (2S)-6-amino-2-(hexadecylcarbamoylamino)-N-octyl-hexanamide hydrochloride]",significant enhancement
3,"CCCCCCCCCCCCCCCCOC(=O)N[C@@H](CCCCN)C(=O)NCCCCCCCC.Cl [SZ188, hexadecyl N-[(1S)-5-amino-1-(octylcarbamoyl)pentyl]carbamate hydrochloride]",showed a tendency to increase
4,"CCCCCCCCCCCCCCCCCCCCCC(=O)NCCc1ccncc1.Cl [SZ209, N-[2-(4-pyridyl)ethyl]docosanamide hydrochloride]",tended to increase
5,"CCCCCCCCCCCCCCCC(=O)N[C@@H](CC(C)C)C(=O)NCCCCCCCC [SZ199, N-[(1S)-3-methyl-1-(octylcarbamoyl)butyl]hexadecanamide]",tended to increase
6,"CCCCCCCCCCCCCCCC(=O)N[C@@H](CCCCN)C(=O)NCCCCCCCCCCCC.Cl [SZ153, N-[(1S)-5-amino-1-(dodecylcarbamoyl)pentyl]hexadecanamide hydrochloride]",significantly increased
7,"CCCCCCCCCCCCCCCCCCCCCC(=O)NC(C)(C)C(=O)NCCCCCCCCCCCC [SZ146, N-[2-(dodecylamino)-1,1-dimethyl-2-oxo-ethyl]docosanamide]",showed a tendency to increase
8,"CCCCCCCCCCCCCCCCCC(=O)N[C@@H](CCCCNC(=N)N)C(=O)NCCCCCC.Cl [SZ206, N-[(1S)-1-(hexylcarbamoyl)-5-guanidino-pentyl]octadecanamide hydrochloride]",significant enhancement
9,"CCCCCCCCCCCCCCCCNC(=O)N[C@H](CCCNC(=N)N)C(=O)NCCCCCCCCCCCC.Cl [SZ193, (2R)—N-dodecyl-5-guanidino-2-(hexadecylcarbamoylamino)pentanamide hydrochloride]",showed a tendency to increase
10,"CCCCCCCCCCCCCCCCCC(=O)NCC(C)(C)C(=O)NCCCCCCCCCCCC [SZ204, N-[3-(dodecylamino)-2,2-dimethyl-3-oxo-propyl]octadecanamide]",tended to increase
11,"CCCCCCCCCCCCCCCCCCCCCC(=O)N[C@@H](CCCCNC(C)=O)C(=O)NCCCCCCCCCCCC [SZ167, N-[(1S)-5-acetamide-1-(dodecylcarbamoyl)pentyl]docosanamide]",tended to increase
12,"CCCCCCCCCCCCCCCCCCCCCC(=O)NCC(C)(C)C(=O)NCCCCCCCCCCCC [SZ148, N-[3-(dodecylamino)-2,2-dimethyl-3-oxo-propyl]docosanamide]",showed a tendency to increase
13,"CCCCCCCCCCCCCCCCNC(=O)N[C@@H](CCCNC(=N)N)C(=O)NCCCCCC.Cl [SZ168, (2S)-5-guanidino-2-(hexadecylcarbamoylamino)-N-hexyl-pentanamide hydrochloride]",tended to increase
14,"CCCCCCCCCCCCCCCC(=O)N[C@H](CCCCN)C(=O)NCCCCCCCCCCCC.Cl [SZ194, N-[(1R)-5-amino-1-(dodecylcarbamoyl)pentyl]hexadecanamide hydrochloride]",showed a tendency to increase
15,"CCCCCCCCCCCCCCCCCC(=O)N[C@@H](CCCCN)C(=O)NCCCCCCCC.Cl [SZ184, N-[(1S)-5-amino-1-(octylcarbamoyl)pentyl]octadecanamide hydrochloride]",showed a tendency to increase
16,"CCCCCCCCCCCCCCCCOC(=O)N[C@@H](CC(C)C)C(=O)NCCCCCCCC [SZ203, hexadecyl N-[(1S)-3-methyl-1-(octylcarbamoyl)butyl]carbamate]",tended to increase
17,"CCCCCCCCCCCCCCCC(=O)N[C@@H](CCCNC(=N)N)C(=O)NCCCCCCCCCCCC.Cl [SZ111, N-[(1S)-1-(dodecylcarbamoyl)-4-guanidino-butyl]hexadecanamide hydrochloride]",significantly increased
18,"CCCCCCCCCCCCCCCCCCCCCC(=O)N[C@@H](CC(C)C)C(=O)NCCCCCCCCCCCC [SZ197, N-[(1S)-1-(dodecylcarbamoyl)-3-methyl-butyl]docosanamide]",tended to increase
19,"CCCCCCCCCCCCCCCCCCCCCC(=O)N[C@@H](CC(C)C)C(=O)NCCCCCCCCCCC [SZ142, N-[(1S)-3-methyl-1-(undecylcarbamoyl)butyl]docosanamide]",showed a tendency to increase
20,"CCCCCCCCCCCCCCCCCC(=O)N[C@@H](CCCCN)C(=O)NCCCCCCCCCCCC.Cl [SZ185, N-[(1S)-5-amino-1-(dodecylcarbamoyl)pentyl]octadecanamide hydrochloride]",significant enhancement
21,"CCCCCCCCCCCCCCCCCCCC(=O)N[C@@H](CCCNC(=N)N)C(=O)NCCCCCCCC.Cl [SZ183, N-[(1S)-4-guanidino-1-(octylcarbamoyl)butyl]icosanamide hydrochloride]",significant enhancement
22,"CCCCCCCC/C=C/CCCCCCCC(=O)N[C@@H](CCCNC(=N)N)C(=O)NCCCCCCCCCCCC.Cl [SZ161, (E)-N-[(1S)-1-(dodecylcarbamoyl)-4-guanidino-butyl]octadeca-9-enamide hydrochloride]",significantly increased
23,"CCCCCCCCCCCCCCCCCCCCCC(=O)N[C@@H](CCCCNC(=N)N)C(=O)NCCCCCC.Cl [SZ170, N-[(1S)-5-guanidino-1-(hexylcarbamoyl)pentyl]docosanamide hydrochloride]",tended to increase
24,"CCCCCCCCCCCCCCCCNC(=O)N[C@@H](CCCNC(=N)N)C(=O)NCCCCCCCC.Cl [SZ210, (2S)-5-guanidino-2-(hexadecylcarbamoylamino)-N-octyl-pentanamide hydrochloride]",significant enhancement
25,"CCCCCCCCCCCCCCCCCC(=O)N[C@@H](CC(C)C)C(=O)NCCCCCCCCCCCC [SZ195, N-[(1S)-1-(dodecylcarbamoyl)-3-methyl-butyl]octadecanamide]",tended to increase
26,"CCCCCCCCCCCCCCCCCCCCCC(=O)N[C@@H](CCCCNC(=N)N)C(=O)NCCCCCCCCCCCC.Cl [SZ166, N-[(1S)-1-(dodecylcarbamoyl)-5-guanidino-pentyl]docosanamide hydrochloride]",tended to increase
